Where a chain is given by its changes, count along the chain named.
Experiments:
[1] = molecular target: T1, wild-type Androgen Receptor (AR-wt) (Homo sapiens, UniProt P10275); test: LNCaP-AR-wt AG: ARE luciferase reporter assay, agonist mode; assay type: cell-based; details: maximum % stimulation (agonist response), % of 1 μM R-1881 max
T1 construct: expressed in transfected cells; host or cells: LNCaP AR (cs) cells with ARE firefly luciferase lentiviral construct
T1 sequence (P10275 1-920): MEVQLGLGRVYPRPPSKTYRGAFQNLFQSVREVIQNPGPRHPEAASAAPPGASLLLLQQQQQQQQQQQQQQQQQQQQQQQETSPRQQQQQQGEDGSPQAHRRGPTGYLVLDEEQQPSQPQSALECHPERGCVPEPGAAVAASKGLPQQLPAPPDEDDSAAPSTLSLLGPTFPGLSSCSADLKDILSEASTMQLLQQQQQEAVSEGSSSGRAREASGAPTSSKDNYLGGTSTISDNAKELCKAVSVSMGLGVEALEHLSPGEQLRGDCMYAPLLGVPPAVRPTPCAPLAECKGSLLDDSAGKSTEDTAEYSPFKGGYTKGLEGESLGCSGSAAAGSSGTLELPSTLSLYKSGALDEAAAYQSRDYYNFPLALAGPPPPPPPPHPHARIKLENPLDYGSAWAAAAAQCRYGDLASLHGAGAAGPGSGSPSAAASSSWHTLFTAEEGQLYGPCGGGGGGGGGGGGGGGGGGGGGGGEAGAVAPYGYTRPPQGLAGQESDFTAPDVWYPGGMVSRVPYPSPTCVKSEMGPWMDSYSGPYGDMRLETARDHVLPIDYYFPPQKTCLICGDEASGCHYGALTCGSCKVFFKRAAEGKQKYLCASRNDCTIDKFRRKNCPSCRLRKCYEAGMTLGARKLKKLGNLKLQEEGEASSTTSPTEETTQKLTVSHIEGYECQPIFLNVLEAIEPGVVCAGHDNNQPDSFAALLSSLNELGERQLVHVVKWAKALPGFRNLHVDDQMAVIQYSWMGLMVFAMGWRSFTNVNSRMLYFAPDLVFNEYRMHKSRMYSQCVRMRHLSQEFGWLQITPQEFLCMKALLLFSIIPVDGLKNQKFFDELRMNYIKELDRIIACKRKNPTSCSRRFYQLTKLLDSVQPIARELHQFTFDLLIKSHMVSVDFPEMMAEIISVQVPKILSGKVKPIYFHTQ
Procedure: (§1) A stable pooled-population cell line was generated using puromycin (Life Technologies) selection at 1:10,000 v/v. The protocol below was used for both cell lines and for testing of the compounds of Formula (I) of the present invention.
(§2) LNCaP cells were grown to about 80% confluence, media removed and cells rinsed in Hank's balanced salt solution prior to separation from the plate with 0.05% Trypsin EDTA. Cells were lifted and trypsin negated in complete CSS (charcoal stripped serum) culture media. […] Agonist challenge was at 400 pM for WT assay and 600 pM for F876L assay. Plates containing cells and compounds herein were incubated for a further 20-24 hours at 37° C., 5% CO2 before addition of 40 μL/well of Steady-Glo Luciferase Assay System Reagent (Promega# E2520). After 1 h, plates were read for luminescence on a BMG Pherastar.
(§3) EC/IC50 calculations were achieved utilizing calculated RLU data and data fitting macros. Data were fit using least-squares methods to the following formula: […]
(§4) As used herein: pIC50 is defined as—Log10(IC50 expressed in [Molar]). pEC50 is defined as—Log10(EC50 expressed in [Molar]). […] LNCaP-AR-wt ANT refers to the reporter assay using LNCaP cells stably transfected with the Androgen Response Element Firefly Luciferase lentiviral construct and wild-type Androgen Receptor (AR-wt) in Antagonist mode. LNCaP-AR-wt AG refers to the reporter assay using LNCaP cells stably transfected with the Androgen Response Element Firefly Luciferase lentiviral construct and wild-type Androgen Receptor (AR-wt) in Agonist mode. LNCaP-AR-F876L ANT refers to the reporter assay using LNCaP cells stably transfected with the Androgen Response Element Firefly Luciferase lentiviral construct and F876L mutant Androgen Receptor (AR-F876L) in Antagonist mode. LNCaP-AR-F876L AG refers to the reporter assay using LNCaP cells stably transfected with the Androgen Response Element Firefly Luciferase lentiviral construct and F876L mutant Androgen Receptor (AR-F876L) in Agonist mode.

[2] = molecular target: T2, F876L mutant Androgen Receptor (AR-F876L) (Homo sapiens, UniProt P10275, F877L); test: LNCaP-AR-F876L AG: ARE luciferase reporter assay, agonist mode; assay type: cell-based; details: maximum % stimulation (agonist response), % of 1 μM R-1881 max
T2 construct: expressed in transfected cells; host or cells: LNCaP F876L cells with ARE firefly luciferase lentiviral construct
T2 sequence (P10275 1-920 F877L): T1 sequence (P10275 1-920) with F877L
Procedure: as §1, §2, §3, §4

Cc1cc(N2C(=O)C3(CCC3)N(c3ccc(C(=O)NC4CCOCC4)c(F)c3)C2=S)cnc1C#N [Cpd 2, 4-[6-(6-cyano-5-methyl-3-pyridyl)-5-oxo-7-thioxo-6,8-diazaspiro[3.4]octan-8-yl]-2-fluoro-N-tetrahydropyran-4-yl-benzamide]
LNCaP-AR-wt AG MAX % Stim [1]: 0.8% | LNCaP-AR-F876L AG MAX % Stim [2]: −0.4%

N#Cc1ncc(N2C(=O)C3(CCC3)N(c3ccc4ccncc4c3)C2=S)cc1C(F)(F)F [Cpd 7, 5-[8-(7-isoquinolyl)-5-oxo-7-thioxo-6,8-diazaspiro[3.4]octan-6-yl]-3-(trifluoromethyl)pyridine-2-carbonitrile]
LNCaP-AR-wt AG MAX % Stim [1]: −0.2% | LNCaP-AR-F876L AG MAX % Stim [2]: 0.0%

N#Cc1ncc(N2C(=O)C3(CCC3)N(c3cccnc3)C2=S)cc1C(F)(F)F [Cpd 9, 5-[5-oxo-8-(3-pyridyl)-7-thioxo-6,8-diazaspiro[3.4]octan-6-yl]-3-(trifluoromethyl)pyridine-2-carbonitrile]
LNCaP-AR-wt AG MAX % Stim [1]: −0.2% | LNCaP-AR-F876L AG MAX % Stim [2]: 0.0%

CNC(=O)c1ccc(N2C(=S)N(c3cnc(C#N)c(C)c3)C(=O)C2(C)C)cc1F [Cpd 12, 4-[3-(6-cyano-5-methyl-3-pyridyl)-5,5-dimethyl-4-oxo-2-thioxo-imidazolidin-1-yl]-2-fluoro-N-methyl-benzamide]
LNCaP-AR-wt AG MAX % Stim [1]: 0.9% | LNCaP-AR-F876L AG MAX % Stim [2]: −0.3%

CC(C)(O)CNC(=O)c1ccc(N2C(=S)N(c3cnc(C#N)c(C(F)(F)F)c3)C(=O)C23CCC3)cc1F [Cpd 17, 4-[6-[6-cyano-5-(trifluoromethyl)-3-pyridyl]-5-oxo-7-thioxo-6,8-diazaspiro[3.4]octan-8-yl]-2-fluoro-N-(2-hydroxy-2-methyl-propyl)benzamide]
LNCaP-AR-wt AG MAX % Stim [1]: −0.1% | LNCaP-AR-F876L AG MAX % Stim [2]: 0.1%

N#Cc1ncc(N2C(=O)C3(CCC3)N(c3ccc4ccccc4c3)C2=S)cc1C(F)(F)F [Cpd 18, 5-[8-(2-naphthyl)-5-oxo-7-thioxo-6,8-diazaspiro[3.4]octan-6-yl]-3-(trifluoromethyl)pyridine-2-carbonitrile]
LNCaP-AR-wt AG MAX % Stim [1]: −0.2% | LNCaP-AR-F876L AG MAX % Stim [2]: 0.0%

CC(C)CCNC(=O)c1ccc(N2C(=S)N(c3cnc(C#N)c(C(F)(F)F)c3)C(=O)C23CCC3)cc1F [Cpd 27, 4-[6-[6-cyano-5-(trifluoromethyl)-3-pyridyl]-5-oxo-7-thioxo-6,8-diazaspiro[3.4]octan-8-yl]-2-fluoro-N-isopentyl-benzamide]
LNCaP-AR-wt AG MAX % Stim [1]: 0.4% | LNCaP-AR-F876L AG MAX % Stim [2]: 0.2%

CN1CCC(Oc2ccc(N3C(=S)N(c4cnc(C#N)c(C(F)(F)F)c4)C(=O)C34CCC4)cc2F)CC1 [Cpd 28, 5-[8-[3-fluoro-4-[(1-methyl-4-piperidyl)oxy]phenyl]-5-oxo-7-thioxo-6,8-diazaspiro[3.4]octan-6-yl]-3-(trifluoromethyl)pyridine-2-carbonitrile]
LNCaP-AR-wt AG MAX % Stim [1]: −0.1% | LNCaP-AR-F876L AG MAX % Stim [2]: 0.0%

N#Cc1ncc(N2C(=O)C3(CCC3)N(c3ccc(C(=O)NCc4ccccc4Cl)c(F)c3)C2=S)cc1C(F)(F)F [Cpd 31, N-[(2-chlorophenyl)methyl]-4-[6-[6-cyano-5-(trifluoromethyl)-3-pyridyl]-5-oxo-7-thioxo-6,8-diazaspiro[3.4]octan-8-yl]-2-fluoro-benzamide]
LNCaP-AR-wt AG MAX % Stim [1]: 0.2% | LNCaP-AR-F876L AG MAX % Stim [2]: 0.3%

N#Cc1ncc(N2C(=O)C3(CCC3)N(c3cccc4ccccc34)C2=S)cc1C(F)(F)F [Cpd 34, 5-[8-(1-naphthyl)-5-oxo-7-thioxo-6,8-diazaspiro[3.4]octan-6-yl]-3-(trifluoromethyl)pyridine-2-carbonitrile]
LNCaP-AR-wt AG MAX % Stim [1]: −0.1% | LNCaP-AR-F876L AG MAX % Stim [2]: 0.2%

N#Cc1ncc(N2C(=O)C3(CCC3)N(c3ccc(C(=O)NCc4ccccc4)c(F)c3)C2=S)cc1C(F)(F)F [Cpd 36, N-benzyl-4-[6-[6-cyano-5-(trifluoromethyl)-3-pyridyl]-5-oxo-7-thioxo-6,8-diazaspiro[3.4]octan-8-yl]-2-fluoro-benzamide]
LNCaP-AR-wt AG MAX % Stim [1]: 0.9% | LNCaP-AR-F876L AG MAX % Stim [2]: 0.3%

N#Cc1ncc(N2C(=O)C3(CCC3)N(c3ccc(C(=O)NCc4ccccn4)c(F)c3)C2=S)cc1C(F)(F)F [Cpd 44, 4-[6-[6-cyano-5-(trifluoromethyl)-3-pyridyl]-5-oxo-7-thioxo-6,8-diazaspiro[3.4]octan-8-yl]-2-fluoro-N-(2-pyridylmethyl)benzamide]
LNCaP-AR-wt AG MAX % Stim [1]: −0.2% | LNCaP-AR-F876L AG MAX % Stim [2]: 0.0%

COCCNC(=O)c1ccc(N2C(=S)N(c3cnc(C#N)c(C(F)(F)F)c3)C(=O)C23CCC3)cc1F [Cpd 46, 4-[6-[6-cyano-5-(trifluoromethyl)-3-pyridyl]-5-oxo-7-thioxo-6,8-diazaspiro[3.4]octan-8-yl]-2-fluoro-N-(2-methoxyethyl)benzamide]
LNCaP-AR-wt AG MAX % Stim [1]: −0.1% | LNCaP-AR-F876L AG MAX % Stim [2]: 0.2%

N#Cc1ncc(N2C(=O)C3(CCC3)N(c3ccc(OC4CCN(CCO)CC4)cc3)C2=S)cc1C(F)(F)F [Cpd 51, 5-[8-[4-[[1-(2-hydroxyethyl)-4-piperidyl]oxy]phenyl]-5-oxo-7-thioxo-6,8-diazaspiro[3.4]octan-6-yl]-3-(trifluoromethyl)pyridine-2-carbonitrile]
LNCaP-AR-wt AG MAX % Stim [1]: 0.8% | LNCaP-AR-F876L AG MAX % Stim [2]: 0.2%

N#Cc1ncc(N2C(=O)C3(CCC3)N(c3ccc(OCCCN4CCCC4)c(F)c3)C2=S)cc1C(F)(F)F [Cpd 55, 5-[8-[3-fluoro-4-(3-pyrrolidin-1-ylpropoxy)phenyl]-5-oxo-7-thioxo-6,8-diazaspiro[3.4]octan-6-yl]-3-(trifluoromethyl)pyridine-2-carbonitrile]
LNCaP-AR-wt AG MAX % Stim [1]: 0.7% | LNCaP-AR-F876L AG MAX % Stim [2]: 0.6%

Source: US20190209539A1, “THIOHYDANTOIN ANDROGEN RECEPTOR ANTAGONISTS FOR THE TREATMENT OF CANCER” (Janssen Pharmaceutica NV, priority 2016, published 2019)
